Where “and” joins values, the source holds several entries; their conditions need not be identical. Identical values can stand only once.
Key:
hSGLT2 F98A = biological target: T1, hSGLT2 F98A (Homo sapiens, UniProt P31639, F98A); experiment: SGLT2 inhibitor-binding assay (AS-MS), crude membrane, F98A mutant; design: expressed in transfected cells; host or cells: Expi293 cells, crude membrane fraction; conditions: 30 nM canagliflozin, replicates
T1 sequence (P31639 1-672 F98A): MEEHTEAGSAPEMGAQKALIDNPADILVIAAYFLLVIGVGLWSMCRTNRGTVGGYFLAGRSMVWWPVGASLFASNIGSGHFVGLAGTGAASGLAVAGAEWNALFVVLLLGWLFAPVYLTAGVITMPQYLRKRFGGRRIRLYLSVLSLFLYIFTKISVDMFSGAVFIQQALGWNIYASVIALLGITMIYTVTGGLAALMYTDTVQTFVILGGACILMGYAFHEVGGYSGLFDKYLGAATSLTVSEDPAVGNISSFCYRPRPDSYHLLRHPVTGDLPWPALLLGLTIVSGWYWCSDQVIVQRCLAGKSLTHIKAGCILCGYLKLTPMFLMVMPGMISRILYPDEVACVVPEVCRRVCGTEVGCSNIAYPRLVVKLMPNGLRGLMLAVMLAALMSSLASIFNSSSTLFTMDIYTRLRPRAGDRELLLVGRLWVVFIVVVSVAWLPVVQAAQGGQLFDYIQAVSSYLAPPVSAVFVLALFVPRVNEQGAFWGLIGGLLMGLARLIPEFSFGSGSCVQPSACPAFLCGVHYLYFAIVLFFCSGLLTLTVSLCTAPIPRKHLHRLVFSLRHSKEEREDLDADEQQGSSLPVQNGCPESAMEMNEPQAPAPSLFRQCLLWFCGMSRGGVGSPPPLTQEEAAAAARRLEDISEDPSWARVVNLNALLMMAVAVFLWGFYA
T1 sequence (Q13113 1-114 partner): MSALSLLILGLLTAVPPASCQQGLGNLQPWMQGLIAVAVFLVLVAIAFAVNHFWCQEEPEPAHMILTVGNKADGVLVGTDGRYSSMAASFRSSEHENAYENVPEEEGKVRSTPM
Description: hSGLT2 complementary DNA and human MAP17 cDNA were synthesized and codon-optimized for expression in human cell lines. Both cDNAs were cloned into the pcDNA3.4 vector. The hSGLT2 sequence was fused with an N-terminal signal sequence from human trypsinogen 1, a His10 tag, and sfGFP, followed by a human rhinovirus 3C protease (HRV3C protease) recognition site. Point mutations were introduced into this construct using site-directed mutagenesis. These plasmids were utilized for all experimental procedures conducted in this study.
To examine the inhibition of binding to the crude membrane, mammalian Expi293 cells were co-transfected with the hMAP17 and hSGLT2 plasmids, as described. […] The extract solution from the filter plate was diluted with water containing candesartan as an internal standard, and the SGLT2 inhibitor concentration was quantified via LC–MS/MS.
Nonspecific binding was measured using the crude membrane of nontransfected Expi293 cells. Specific binding was calculated by subtracting nonspecific binding from the binding of hSGLT2-expressing cells. Specific binding was normalized to hSGLT2 protein expression levels, measured via FSEC. The equilibrium dissociation constant (Kd) and maximum number of binding sites (Bmax) were calculated via nonlinear regression in GraphPad Prism 8.4.3. […]

[1] = test system: nontransfected Expi293 cells (Mock); experiment: Nonspecific binding to crude membrane of nontransfected cells (Mock); design: species or system human; conditions: 30 nM canagliflozin; Mock membrane
Procedure: To examine the inhibition of binding to the crude membrane, mammalian Expi293 cells were co-transfected with the hMAP17 and hSGLT2 plasmids, as described. The cells were collected and disrupted by sonication in a hypotonic buffer (50 mM HEPES–NaOH (pH 7.5), 10 mM KCl and protease inhibitor cocktail) or Na^+-free hypotonic buffer (50 mM Tris–HCl (pH 7.5), 10 mM KCl and protease inhibitor cocktail). The cell debris were removed by centrifugation (2,000g, 5 min, 4 °C). The membrane fraction was collected by ultracentrifugation (112,000g, 30 min, 4 °C) and stored at −80 °C before use. The crude membrane (250 μg per sample) was incubated with SGLT2 inhibitor in an assay buffer (100 mM NaCl and 10 mM HEPES/Tris, pH 7.4) or Na^+-free assay buffer (100 mM choline chloride and 10 mM HEPES/Tris, pH 7.4) at room temperature for 2 h. Reactions were terminated by filtration through a GF/C filter plate (Corning) presoaked in assay buffer containing 0.1% bovine serum albumin. The sample in the filter plate was washed three times with the assay buffer and eluted with acetonitrile: water (80:20, v/v). The extract solution from the filter plate was diluted with water containing candesartan as an internal standard, and the SGLT2 inhibitor concentration was quantified via LC–MS/MS.
Nonspecific binding was measured using the crude membrane of nontransfected Expi293 cells. Specific binding was calculated by subtracting nonspecific binding from the binding of hSGLT2-expressing cells. Specific binding was normalized to hSGLT2 protein expression levels, measured via FSEC. The equilibrium dissociation constant (Kd) and maximum number of binding sites (Bmax) were calculated via nonlinear regression in GraphPad Prism 8.4.3. The specific binding of the hSGLT2 mutants was normalized to the Bmax of WT hSGLT2.
The concentrations of the extract solution from the filter plate and of the cell lysate were quantified using a tandem mass spectrometry QTRAP6500 System (SCIEX) coupled with an ACQUITY UPLC system (Waters) using the internal standard method. Mobile phases A and B used 10 mM of ammonium bicarbonate and acetonitrile, respectively.

SGLT2 = test system: SGLT2; design: method as in literature; conditions: referee comment in peer review file; ref literature; cited from earlier work
[2] = test system: β-glucosidase in the intestine; design: method as in PMID 21358697; conditions: O-glucoside hydrolyzed by β-glucosidase in the intestine; cited from earlier work
Mock cells = experiment: α-MG uptake in mock (empty vector) HEK293 cells; type: cell-based, human; conditions: Control (no inhibitor)
Procedure: HEK293 cells (ECACC 85120602) were maintained in Dulbecco’s modified Eagle medium (Gibco) supplemented with 10% fetal bovine serum (Thermo Scientific), 2 mM L-glutamine, 100 U ml^−1 benzylpenicillin and 100 µg ml^−1 streptomycin at 37 °C in a humidified atmosphere (5% CO2 in air). HEK293 cells were seeded at 1.0 × 10^5 cells per well in poly-L-lysine coated 24-well plates. The cells in each well were transiently transfected with 0.25 µg hMAP17 plasmid and 0.50 µg hSGLT2 plasmid using Lipofectamine 2000 (Life Technologies) and cultured for 48 h. […]
Cell lysates were deproteinized by adding acetonitrile containing candesartan as the internal standard. The α-MG concentration was quantified via liquid chromatography–tandem mass spectrometry (LC–MS/MS) using the internal standard method.
Cellular protein content was determined using a bicinchoninic acid protein assay kit (Thermo Fisher Scientific). The uptake of α-MG was expressed as the ratio of concentration in the cells (in pmol per mg protein) to concentration in the medium (in pmol μl^−1); this is known as the cell-to-medium ratio (in μl per mg protein).
In the inhibition study, the cell-to-medium ratio of cells transfected with the empty vector was used as the background. […] IC50 was calculated via nonlinear regression using GraphPad Prism 8.4.3. […]

SMILES: Cc1ccc([C@@H]2O[C@H](CO)[C@@H](O)[C@H](O)[C@H]2O)cc1Cc1ccc(-c2ccc(F)cc2)s1 [Canagliflozin]
- Canagliflozin binding (% of WT) (hSGLT2 F98A): -6.142 % of WT and -5.964 % of WT and -3.041 % of WT
- Canagliflozin binding (% of hSGLT2) [1]: 2.562 % of hSGLT2 and 2.489 % of hSGLT2 and 1.993 % of hSGLT2
- IC50 (SGLT2): ~2.7 nM

SMILES: O=C(CCc1ccc(O)cc1)c1c(O)cc(O)cc1O[C@@H]1O[C@H](CO)[C@@H](O)[C@H](O)[C@H]1O [Phlorizin]
- metabolic stability [2]: poor

SMILES: CO[C@H]1O[C@H](CO)[C@@H](O)[C@H](O)[C@H]1O [α-MG, α-methyl-D-glucopyranoside]
- α-MG uptake (Mock cells): 1.2395 μL/mg-protein and 1.0638 μL/mg-protein and 1.0076 μL/mg-protein and 1.0525 μL/mg-protein
